Like-named read-outs stand apart in the source and are kept apart here.
Columns and labels:
[1] = test system: inherently resistant microorganisms
[2] = test system: microorganisms with acquired resistance
[3] = E. coli ECO3, pair Mupirocin / MBI 11D18CN
[4] = S. aureus 19 MRSA, pair Piperacillin / MBI 11D18CN

Substance: W R I W K P K W R L P K W [MBI 11D18CN]
- MIC (bacteria; A. calcoaceticus AC003): 32 µg/mL
- MIC (bacteria; E. cloacae ECL009): 64 µg/mL
- MIC (bacteria; E. coli ATCC 25922, agarose dilution assay): 16 µg/mL
- MIC (bacteria; E. coli ECO002): 4 µg/mL
- MIC (bacteria; E. coli ESS, agarose dilution assay): 2 µg/mL
- MIC (bacteria; E. coli NCTC 10418, agarose dilution assay): 2 µg/mL
- MIC (bacteria; E. faecalis EFS002): 32 µg/mL
- MIC (bacteria; E. faecium ATCC 29212, agarose dilution assay): 8 µg/mL
- MIC (bacteria; E. faecium EFM003): 2 µg/mL
- MIC (bacteria; H. influenzae HIN002): >128 µg/mL
- MIC (bacteria; K. pneumoniae KP002): 64 µg/mL
- MIC (bacteria; P. aeruginosa ATCC 27853, agarose dilution assay): 128 µg/mL
- MIC (bacteria; P. aeruginosa NCTC 10662, agarose dilution assay): 128 µg/mL
- MIC (bacteria; P. aeruginosa PA006): >128 µg/mL
- MIC (bacteria; P. mirabilis PM003): >128 µg/mL
- MIC (bacteria; P. vulgaris ATCC 13315, agarose dilution assay): 32 µg/mL
- MIC (bacteria; P. vulgaris SBPV1): 32 µg/mL
- MIC (bacteria; S. aureus ATCC 29213, agarose dilution assay): 0.5 µg/mL
- MIC (bacteria; S. aureus MRSA9, agarose dilution assay): 2 µg/mL
- MIC (bacteria; S. aureus MRSA13, agarose dilution assay): 8 µg/mL
- MIC (bacteria; S. aureus MRSA17, agarose dilution assay): 2 µg/mL
- MIC (bacteria; S. aureus SA010): 4 µg/mL
- MIC (bacteria; S. aureus SA206, agarose dilution assay): 4 µg/mL
- MIC (bacteria; S. epidermidis SE010): 2 µg/mL
- MIC (bacteria; S. maltophilia SMA003): 16 µg/mL
- MIC (bacteria; S. marcescens SBSM2): >128 µg/mL
- MIC (bacteria; S. marcescens SM76, agarose dilution assay): >128 µg/mL
- MIC (bacteria; S. marcescens SM82, agarose dilution assay): >128 µg/mL
- MIC (bacteria; S. pneumoniae 406LE8, agarose dilution assay): 64 µg/mL
- MIC (bacteria; S. pneumoniae 60120, agarose dilution assay): 128 µg/mL
- MIC (bacteria; S. pneumoniae ATCC 49619, agarose dilution assay): 64 µg/mL
- MIC (bacteria; S. pneumoniae SBSPN3): 64 µg/mL
- MIC (bacteria; S. pyogenes SPY003): 32 µg/mL
- FIC [1]: 0.56
- MIC Alone [1]: 32 µg/mL
- MIC in combination [1]: 16 µg/mL
- FIC [1, 3]: 0.26
- MIC Alone [1, 3]: 4 µg/mL
- MIC in combination [1, 3]: 1 µg/mL
- FIC [1, 4]: 0.52
- MIC Alone [1, 4]: 4 µg/mL
- MIC in combination [1, 4]: 2 µg/mL
- Peptide MIC + Tobramycin ([2]; A. baumannii ABI001): 4 µg/mL
- Tobramycin MIC + Peptide ([2]; A. baumannii ABI001): 4 µg/mL
- Peptide MIC Alone ([2]; A. baumannii ABI001 (7. Tobramycin)): 64 µg/mL
- Peptide MIC + Tobramycin ([2]; A. baumannii ABI002): 0.5 µg/mL
- Tobramycin MIC + Peptide ([2]; A. baumannii ABI002): 4 µg/mL
- Peptide MIC Alone ([2]; A. baumannii ABI002 (7. Tobramycin)): 16 µg/mL
- Peptide MIC + Piperacillin ([2]; A. calcoaceticus 3): 8 µg/mL
- Piperacillin MIC + Peptide ([2]; A. calcoaceticus 3): 8 µg/mL
- Peptide MIC Alone ([2]; A. calcoaceticus 3 (6. Piperacillin)): 32 µg/mL
- Peptide MIC + Piperacillin ([2]; E. cloacae 9): 16 µg/mL
- Piperacillin MIC + Peptide ([2]; E. cloacae 9): 16 µg/mL
- Peptide MIC Alone ([2]; E. cloacae 9 (6. Piperacillin)): 64 µg/mL
- Peptide MIC + Piperacillin ([2]; E. cloacae 10): 16 µg/mL
- Piperacillin MIC + Peptide ([2]; E. cloacae 10): 16 µg/mL
- Peptide MIC Alone ([2]; E. cloacae 10 (6. Piperacillin)): 32 µg/mL
- Peptide MIC + Vancomycin ([2]; E. faecalis EFS003): 32 µg/mL
- Vancomycin MIC + Peptide ([2]; E. faecalis EFS003): 2 µg/mL
- Peptide MIC Alone ([2]; E. faecalis EFS003 (8. Vancomycin)): 64 µg/mL
- Peptide MIC + Vancomycin ([2]; E. faecalis EFS007): 8 µg/mL
- Vancomycin MIC + Peptide ([2]; E. faecalis EFS007): 1 µg/mL
- Peptide MIC Alone ([2]; E. faecalis EFS007 (8. Vancomycin)): 16 µg/mL
- Peptide MIC + Vancomycin ([2]; E. faecalis EFS009): 4 µg/mL
- Vancomycin MIC + Peptide ([2]; E. faecalis EFS009): 2 µg/mL
- Peptide MIC Alone ([2]; E. faecalis EFS009 (8. Vancomycin)): 8 µg/mL
- Peptide MIC + Vancomycin ([2]; E. faecium EFM004): 4 µg/mL
- Vancomycin MIC + Peptide ([2]; E. faecium EFM004): 0.5 µg/mL
- Peptide MIC Alone ([2]; E. faecium EFM004 (8. Vancomycin)): 8 µg/mL
- Peptide MIC + Vancomycin ([2]; E. faecium EFM007): 4 µg/mL
- Vancomycin MIC + Peptide ([2]; E. faecium EFM007): 0.5 µg/mL
- Peptide MIC Alone ([2]; E. faecium EFM007 (8. Vancomycin)): 8 µg/mL
- Peptide MIC + Vancomycin ([2]; E. faecium EFM009): 4 µg/mL
- Vancomycin MIC + Peptide ([2]; E. faecium EFM009): 1 µg/mL
- Peptide MIC Alone ([2]; E. faecium EFM009 (8. Vancomycin)): 8 µg/mL
- Peptide MIC + Vancomycin ([2]; E. faecium EFM010): 4 µg/mL
- Vancomycin MIC + Peptide ([2]; E. faecium EFM010): 1 µg/mL
- Peptide MIC Alone ([2]; E. faecium EFM010 (8. Vancomycin)): 8 µg/mL
- Peptide MIC + Piperacillin ([2]; P. aeruginosa 23): 4 µg/mL
- Piperacillin MIC + Peptide ([2]; P. aeruginosa 23): 64 µg/mL
- Peptide MIC Alone ([2]; P. aeruginosa 23 (6. Piperacillin)): 64 µg/mL
- Peptide MIC + Tobramycin ([2]; P. aeruginosa PA032): 32 µg/mL
- Tobramycin MIC + Peptide ([2]; P. aeruginosa PA032): 4 µg/mL
- Peptide MIC Alone ([2]; P. aeruginosa PA032 (7. Tobramycin)): 64 µg/mL
- Ciprofloxacin MIC + Peptide ([2]; P. aeruginosa PA77): 0.5 µg/mL
- Peptide MIC + Ciprofloxacin ([2]; P. aeruginosa PA77): 32 µg/mL
- Peptide MIC Alone ([2]; P. aeruginosa PA77 (3. Ciprofloxacin)): 128 µg/mL
- Peptide MIC ([2]; S. aureus MRSA 9, pair Mupirocin / MBI 11D18CN): 2 µg/mL
- Peptide MIC + Tobramycin ([2]; S. epidermidis SE080): 1 µg/mL
- Tobramycin MIC + Peptide ([2]; S. epidermidis SE080): 4 µg/mL
- Peptide MIC Alone ([2]; S. epidermidis SE080 (7. Tobramycin)): 2 µg/mL
- Peptide MIC + Piperacillin ([2]; S. maltophilia 2): 8 µg/mL
- Piperacillin MIC + Peptide ([2]; S. maltophilia 2): 16 µg/mL
- Peptide MIC Alone ([2]; S. maltophilia 2 (6. Piperacillin)): 32 µg/mL
- Peptide MIC + Piperacillin ([2]; S. maltophilia 14): 8 µg/mL
- Piperacillin MIC + Peptide ([2]; S. maltophilia 14): 16 µg/mL
- Peptide MIC Alone ([2]; S. maltophilia 14 (6. Piperacillin)): 16 µg/mL
- Peptide MIC + Tobramycin ([2]; S. maltophilia SMA027): 16 µg/mL
- Tobramycin MIC + Peptide ([2]; S. maltophilia SMA027): 4 µg/mL
- Peptide MIC Alone ([2]; S. maltophilia SMA027 (7. Tobramycin)): >128 µg/mL
- Peptide MIC + Tobramycin ([2]; S. maltophilia SMA029): 8 µg/mL
- Tobramycin MIC + Peptide ([2]; S. maltophilia SMA029): 2 µg/mL
- Peptide MIC Alone ([2]; S. maltophilia SMA029 (7. Tobramycin)): 32 µg/mL
- Peptide MIC + Piperacillin ([2]; S. marcescens 1): 4 µg/mL
- Piperacillin MIC + Peptide ([2]; S. marcescens 1): 8 µg/mL
- Peptide MIC Alone ([2]; S. marcescens 1 (6. Piperacillin)): >128 µg/mL
- FIC ([2]; peptide + Ciprofloxacin, P. aeruginosa PA77): 0.50
- FIC ([2]; peptide + Piperacillin, A. calcoaceticus 3): 0.38
- FIC ([2]; peptide + Piperacillin, E. cloacae 9): 0.31
- FIC ([2]; peptide + Piperacillin, E. cloacae 10): 0.56
- FIC ([2]; peptide + Piperacillin, P. aeruginosa 23): 0.56
- FIC ([2]; peptide + Piperacillin, S. maltophilia 2): 0.50
- FIC ([2]; peptide + Piperacillin, S. maltophilia 14): 0.63
- FIC ([2]; peptide + Piperacillin, S. marcescens 1): 0.14
- FIC ([2]; peptide + Tobramycin, A. baumannii ABI001): 0.31
- FIC ([2]; peptide + Tobramycin, A. baumannii ABI002): 9.53
- FIC ([2]; peptide + Tobramycin, P. aeruginosa PA032): 11.00
- FIC ([2]; peptide + Tobramycin, S. epidermidis SE080): 0.75
- FIC ([2]; peptide + Tobramycin, S. maltophilia SMA027): 9.19
- FIC ([2]; peptide + Tobramycin, S. maltophilia SMA029): 0.27
- FIC ([2]; peptide + Vancomycin, E. faecalis EFS003): 0.75
- FIC ([2]; peptide + Vancomycin, E. faecalis EFS007): 0.63
- FIC ([2]; peptide + Vancomycin, E. faecalis EFS009): 0.75
- FIC ([2]; peptide + Vancomycin, E. faecium EFM004): 0.50
- FIC ([2]; peptide + Vancomycin, E. faecium EFM007): 0.50
- FIC ([2]; peptide + Vancomycin, E. faecium EFM009): 0.52
- FIC ([2]; peptide + Vancomycin, E. faecium EFM010): 0.59

— patent US6503881B2 (priority 1996, dated 2003)
